These results are taken from patent publication US9763957B2, “Autotaxin inhibitors” (Novartis AG, priority 2013, dated 2017).

By IC50 is commonly meant the concentration needed to halve the response being measured.

The target of the assay is Recombinant human ATX (Homo sapiens (Human), UniProt Q13822). In words: ATX inhibition assay (choline release, Amplex Red fluorescence). It counts as biochemical. The note with it: ATX 10 nM, LPC 18:1 10 μM, 37° C., 20 min pre-incubation; mean of n≧2. The procedure:
Reagents—LPC (oleoyl (18:1)) was purchased from Avanti Polar Lipids (Alabaster, Ala.) and solubilized in methanol to 20 mM. Amplex Red was obtained from Invitrogen Life Technologies (Paisley, UK) and dissolved in DMSO to 10 mM. Choline oxidase and horseradish peroxidase (HRP) were obtained from Sigma Aldrich (Dorset, UK) and dissolved in HBSS to 20 U/ml and 200 U/ml respectively. All reagents were stored at −20° C. in single use aliquots. All experimental measurements were performed in assay buffer made up immediately prior to use (HBSS, 0.01% BSA essentially fatty acid free).
PerkinElmer EnVision (Fluorescence Intensity/Absorbance Monochromator) or Tecan Infinite 200 PRO series plate reader was used to detect change in fluorescent intensity.
Assessing ATX inhibition—ATX activity was determined by measurement of released choline in reactions containing ATX (10 nM), choline oxidase (0.1 U/ml), HRP (100 U/ml), amplex red (50 μM) and LPC 18:1 (10 μM). Compounds of the invention were prepared as 10 point serial dilutions from 1 μM in duplicate and pre-incubated with ATX at 37° C. for 20 minutes prior to the addition of remaining reagents. The liberated choline was measured from changes in fluorescence intensity (λex 530 nm, λem 590 nm) of the product resurofin at 37° C. every 2 minutes over a 40-minute period. ATX activity was measured as a slope of the linear portion of the progress curve, typically between 14 to 24 minutes.
Data analysis—Slope data was exported to Graphpad prism (Graphpad software, San Diego, Calif.) where data was fitted to equation 1. Y=Bottom+(Top-Bottom)/(1+10^((Log IC50−X)*HillSlope)) Equation 1: […]
For the compound `Cc1cn(C2CCN(C(=O)/C=C/c3ccc(Cl)cc3Cn3nnc(C)n3)CC2)nn1` [Example 9, (E)-3-(4-Chloro-2-((5-methyl-2H-tetrazol-2-yl)methyl)phenyl)-1-(4-(4-methyl-1H-1,2,3-triazol-1-yl)piperidin-1-yl)prop-2-en-1-one], the IC50 came to 100 nM.

Consider `Cc1ncn(C2CCN(C(=O)/C=C/c3ccc(Cl)cc3Cn3nnc(C)n3)CC2)n1` [Example 10, (E)-3-(4-Chloro-2-((5-methyl-2H-tetrazol-2-yl)methyl)phenyl)-1-(4-(3-methyl-1H-1,2,4-triazol-1-yl)piperidin-1-yl)prop-2-en-1-one], for which the IC50 came to 40 nM. Then `Cc1nnn(Cc2cc(Cl)ccc2/C=C/C(=O)N2CCC(n3ncnc3C)CC2)n1` [Example 11, (E)-3-(4-Chloro-2-((5-methyl-2H-tetrazol-2-yl)methyl)phenyl)-1-(4-(5-methyl-1H-1,2,4-triazol-1-yl)piperidin-1-yl)prop-2-en-1-one], with 73 nM; and `Cc1nnn(Cc2cc(Cl)ccc2/C=C/C(=O)N2CCC(n3nnnc3C)CC2)n1` [Example 12, (E)-3-(4-Chloro-2-((5-methyl-2H-tetrazol-2-yl)methyl)phenyl)-1-(4-(5-methyl-1H-tetrazol-1-yl)piperidin-1-yl)prop-2-en-1-one], with 157 nM; and `Cc1nnc(Cc2cc(Cl)ccc2/C=C/C(=O)N2CCC(Cc3nnc(C)o3)CC2)o1` [Example 13, (E)-3-(4-Chloro-2-((5-methyl-1,3,4-oxadiazol-2-yl)methyl)phenyl)-1-(4-((5-methyl-1,3,4-oxadiazol-2-yl)methyl)piperidin-1-yl)prop-2-en-1-one], with 2360 nM. Then `Cc1nnn(Cc2cc(Cl)ccc2/C=C/C(=O)N2CCC(O)(Cn3cc(C(=O)N4CCOCC4)cn3)CC2)n1` [Example 14, (E)-3-(4-Chloro-2-((5-methyl-2H-tetrazol-2-yl)methyl)phenyl)-1-(4-hydroxy-4-((4-(morpholine-4-carbonyl)-1H-pyrazol-1-yl)methyl)piperidin-1-yl)prop-2-en-1-one], with 12 nM; and `Cc1nnn(Cc2cc(Cl)ccc2/C=C/C(=O)N2CCC(O)(Cn3cc(C(=O)N(C)C)cn3)CC2)n1` [Example 15, (E)-1-((1-(3-(4-Chloro-2-((5-methyl-2H-tetrazol-2-yl)methyl)phenyl)acryloyl)-4-hydroxypiperidin-4-yl)methyl)-N,N-dimethyl-1H-pyrazole-4-carboxamide], with 62 nM; and `Cc1nnn(Cc2cc(Cl)ccc2/C=C/C(=O)N2CCC(O)(Cn3cc(C(=O)N4CCCCC4)cn3)CC2)n1` [Example 16, (E)-3-(4-Chloro-2-((5-methyl-2H-tetrazol-2-yl)methyl)phenyl)-1-(4-hydroxy-4-((4-(piperidine-1-carbonyl)-1H-pyrazol-1-yl)methyl)piperidin-1-yl)prop-2-en-1-one], with 11 nM.

With `Cc1nnn(Cc2cc(Cl)ccc2/C=C/C(=O)N2CCC(n3nnc(C)n3)CC2)n1` [Example 17, (E)-3-(4-Chloro-2-((5-methyl-2H-tetrazol-2-yl)methyl)phenyl)-1-(4-(5-methyl-2H-tetrazol-2-yl)piperidin-1-yl)prop-2-en-1-one], the IC50 came out at 24 nM. Then `Cc1nnn(Cc2cc(Cl)ccc2/C=C/C(=O)N2CCC(O)(Cn3cc(C(F)(F)F)cn3)CC2)n1` [Example 18, (E)-3-(4-Chloro-2-((5-methyl-2H-tetrazol-2-yl)methyl)phenyl)-1-(4-hydroxy-4-((4-(trifluoromethyl)-1H-pyrazol-1-yl)methyl)piperidin-1-yl)prop-2-en-1-one], with 37 nM; and `Cc1nnn(Cc2cc(Cl)ccc2/C=C/C(=O)N2CCC(c3noc(C)n3)CC2)n1` [Example 19, (E)-3-(4-Chloro-2-((5-methyl-2H-tetrazol-2-yl)methyl)phenyl)-1-(4-(5-methyl-1,2,4-oxadiazol-3-yl)piperidin-1-yl)prop-2-en-1-one], with 31 nM; and `Cc1nnn(Cc2cc(Cl)ccc2/C=C/C(=O)N2CCC(CCc3nnc(C)o3)CC2)n1` [Example 20, (E)-3-(4-Chloro-2-((5-methyl-2H-tetrazol-2-yl)methyl)phenyl)-1-(4-(2-(5-methyl-1,3,4-oxadiazol-2-yl)ethyl)piperidin-1-yl)prop-2-en-1-one], with 163 nM. Regarding `Cc1noc(Cc2cc(Cl)ccc2/C=C/C(=O)N2CCC(Cc3nnc(C)o3)CC2)n1` [Example 21, (E)-3-(4-Chloro-2-((3-methyl-1,2,4-oxadiazol-5-yl)methyl)phenyl)-1-(4-((5-methyl-1,3,4-oxadiazol-2-yl)methyl)piperidin-1-yl)prop-2-en-1-one], the IC50 came to 208 nM. Consider `Cc1nnn(Cc2cc(Cl)ccc2/C=C/C(=O)N2CCC(n3nccn3)CC2)n1` [Example 22, (E)-1-(4-(2H-1,2,3-Triazol-2-yl)piperidin-1-yl)-3-(4-chloro-2-((5-methyl-2H-tetrazol-2-yl)methyl)phenyl)prop-2-en-1-one], for which the IC50 amounted to 26 nM.

For `Cc1nnn(Cc2cc(Cl)ccc2/C=C/C(=O)N2CCC(c3ncc(C)o3)CC2)n1` [Example 24, (E)-3-(4-Chloro-2-((5-methyl-2H-tetrazol-2-yl)methyl)phenyl)-1-(4-(5-methyloxazol-2-yl)piperidin-1-yl)prop-2-en-1-one], the IC50 stood at 4 nM. Next, `Cc1cnn(C2CCN(C(=O)/C=C/c3ccc(Cl)cc3Cn3nnc(C)n3)CC2)n1` [Example 25, (E)-3-(4-Chloro-2-((5-methyl-2H-tetrazol-2-yl)methyl)phenyl)-1-(4-(4-methyl-2H-1,2,3-triazol-2-yl)piperidin-1-yl)prop-2-en-1-one]: 8.5 nM; `Cc1nnn(Cc2cc(Cl)ccc2/C=C/C(=O)N2CCC(CCCc3nnc(C)o3)CC2)n1` [Example 26, (E)-3-(4-Chloro-2-((5-methyl-2H-tetrazol-2-yl)methyl)phenyl)-1-(4-(3-(5-methyl-1,3,4-oxadiazol-2-yl)propyl)piperidin-1-yl)prop-2-en-1-one]: 31 nM. For the compound `Cc1nnn(Cc2cc(Cl)ccc2/C=C/C(=O)N2CCC(c3coc(C)n3)CC2)n1` [Example 27, (E)-3-(4-Chloro-2-((5-methyl-2H-tetrazol-2-yl)methyl)phenyl)-1-(4-(2-methyloxazol-4-yl)piperidin-1-yl)prop-2-en-1-one], the IC50 amounted to 59 nM. `Cc1cnn(C2CCN(C(=O)/C=C/c3ccc(Cl)cc3Cn3nnc(C)n3)CC2)c1` [Example 28, (E)-3-(4-Chloro-2-((5-methyl-2H-tetrazol-2-yl)methyl)phenyl)-1-(4-(4-methyl-1H-pyrazol-1-yl)piperidin-1-yl)prop-2-en-1-one]: the IC50 was found to be 6.3 nM. In the case of `COC(=O)C1CCCCN1C(=O)/C=C/c1ccc(Cl)cc1Cn1nnc(C)n1` (centres unmarked) [Example 29, (E)-Methyl 1-(3-(4-Chloro-2-((5-methyl-2H-tetrazol-2-yl)methyl)phenyl)acryloyl) piperidine-2-carboxylate], the IC50 came to 32 nM. Next, `CCOC(=O)c1cnn(CC2(O)CCN(C(=O)/C=C/c3ccc(Cl)cc3Cn3nnc(C)n3)CC2)c1` [Example 32, (E)-Ethyl 1-((1-(3-(4-chloro-2-((5-methyl-2H-tetrazol-2-yl)methyl)phenyl)acryloyl)-4-hydroxypiperidin-4-yl)methyl)-1H-pyrazole-4-carboxylate]: 3.5 nM; `Cc1cnn(CCC2CCN(C(=O)/C=C/c3ccc(Cl)cc3Cn3nnc(C)n3)CC2)c1` [Example 33, (E)-3-(4-Chloro-2-((5-methyl-2H-tetrazol-2-yl)methyl)phenyl)-1-(4-(2-(4-methyl-1H-pyrazol-1-yl)ethyl)piperidin-1-yl)prop-2-en-1-one]: 53 nM; `Cc1nnn(Cc2cc(Cl)ccc2/C=C/C(=O)N2CCC(O)(Cn3cc(C(=O)O)cn3)CC2)n1` [Example 35, (E)-1-((1-(3-(4-Chloro-2-((5-methyl-2H-tetrazol-2-yl)methyl)phenyl)acryloyl)-4-hydroxypiperidin-4-yl)methyl)-1H-pyrazole-4-carboxylic acid]: 924 nM. Turning to `Cc1nnn(Cc2cc(C(F)(F)F)ccc2OCC(=O)N2CCC(c3noc(C)n3)CC2)n1` [Example 36, 1-(4-(5-Methyl-1,2,4-oxadiazol-3-yl)piperidin-1-yl)-2-(2-((5-methyl-2H-tetrazol-2-yl)methyl)-4-(trifluoromethyl)phenoxy)ethanone], the IC50 was found to be 171 nM. Take `Cc1ncn(C2CCN(C(=O)/C=C/c3ccc(C(F)(F)F)cc3Cn3nnc(C)n3)CC2)n1` [Example 37, (E)-1-(4-(3-Methyl-1H-1,2,4-triazol-1-yl)piperidin-1-yl)-3-(2-((5-methyl-2H-tetrazol-2-yl)methyl)-4-(trifluoromethyl)phenyl)prop-2-en-1-one]: the IC50 amounted to 17 nM. Next, `C/C(=C\C(=O)N1CCC(c2nnc(C)o2)CC1)c1ccc(Cl)cc1Cn1nnc(C)n1` [Example 39, (E)-3-(4-Chloro-2-((5-methyl-2H-tetrazol-2-yl)methyl)phenyl)-1-(4-(5-methyl-1,3,4-oxadiazol-2-yl)piperidin-1-yl)but-2-en-1-one]: 75 nM.
